In general, LD50 refers to the dose expected to kill half of the subjects tested. A higher LD50 goes with lower toxicity.

Series [1] has as its system aconitin arrhythmia. Kind of series: aconitin arrhythmia model on rats (time to ventricular extrasystole, tachycardia, fibrillation; ED125, ED150). It counts as in vivo, Wistar rats. Conditions: for time to chamber extrasystol, aconitin infusion / time to chamber tachycardia, aconitin infusion / time to fibrillation, aconitin infusion: 5 minutes before aconitin infusion, X ± S.E.M.; for ED125 / ED150: Rattus norvegicus, iv, 95% confidence limits on the next line; for ED125: infusion time to extrasystol 7.6 (control 6.1 minutes), read-out: ED125 (delay of chamber extrasystol); for ED150: infusion time to extrasystol 9.2 (control 6.1 minutes), read-out: ED150 (delay of chamber extrasystol). As to the method: Wistar rats (200-220 g) are narcotized with urethane. The vena jugularis is connected with a polyethylene catheter. Using standard EKG-II leads, a control EKG is taken. The test substance and the physiological saline solution used as control are intravenously administered 5 minutes before the aconitin infusion. The aconitin solution is continuous administered at a dose of 5 mg/kg at a rate of 0.1 ml (100 g/minute) as an infusion into the vena jugularis. The progress is monitored by the EKG isoelectric line.
During the test the time to formation of the ventricular extrasystole, ventricular tachycardia and fibrillation were determined.
On the basis of the late occurrence of the ventricula extrasystole, ED125 and ED150 values were determined.

In series [2] the test system is mice. Kind of series: acute toxicity on mice (LD50, Litchfield-Wilcoxon, after a week). It counts as in vivo. Particulars: i.v., 95% confidence limits on the next line, 10080 min. How it is done:
(§1) On the basis of the late occurrence of the ventricula extrasystole, ED125 and ED150 values were determined. The acute toxicities were determined on mice (CELP strain and the LD50 value was calculated after a week using the Litchfield-Wilcoxon method. The antiarrhythmically effective dosage or the LD50 value for several compounds of the various compound types are collected in Table III.

Test in series [3]: as above
It counts as in vivo. Conditions: mouse, in vivo, iv, 95% confidence limits on the next line. How it is done:
as §1

Turning to `Cc1cccc(C)c1NC(=O)CNC(=O)C1=CC(C)(C)NC1(C)C` [Compound 19], in series [1] (1.0 mg/kg i.v.), the “time to chamber extrasystol, aconitin infusion” value (from here on “time to chamber extrasystol”) was determined as 6.6 min; the “time to chamber tachycardia, aconitin infusion” value (from here on “time to chamber tachycardia”) is given as 10.4 ± 2.58 min; the “time to fibrillation, aconitin infusion” value is given as 15.1 ± 0.70 min. In series [1] (4.0 mg/kg i.v.), the “time to chamber extrasystol” value came to 9.8 ± 0.34 min; the “time to chamber tachycardia” value came out at 16.1 ± 2.62 min; the “time to fibrillation, aconitin infusion” value was determined as 17.4 ± 1.22 min. Further, in series [1] (8.0 mg/kg i.v.), the “time to chamber extrasystol” value is reported as 13.8 ± 0.35 min; the “time to chamber tachycardia” value was 27.0 ± 1.10 min; the “time to fibrillation, aconitin infusion” value is 30.6 ± 1.72 min. In series [1], the ED125 stood at 1.53 mg/kg and the ED150 is 2.44 mg/kg. Besides, the “LD50 (acute toxicity)” value in series [2] was 53 mg/kg.
With `Cc1cccc(C)c1NC(=O)C(C)NC(=O)C1=CC(C)(C)NC1(C)C` (stereo not shown) [Compound 20], in series [1] (1.0 mg/kg i.v.), the “time to chamber extrasystol” value turned out to be 7.1 ± 0.49 min; the “time to chamber tachycardia” value amounted to 12.3 ± 0.42 min; the “time to fibrillation, aconitin infusion” value worked out at 15.5 ± 0.59 min. In series [1] (2.0 mg/kg i.v.), the “time to chamber extrasystol” value was 9.2 ± 0.65 min; the “time to chamber tachycardia” value came to 15.1 ± 0.22 min; the “time to fibrillation, aconitin infusion” value was determined as 19.5 ± 0.54 min. Further, in series [1] (4.0 mg/kg i.v.), the “time to chamber extrasystol” value amounted to 11.7 ± 0.50 min; the “time to chamber tachycardia” value came out at 18.4 ± 0.75 min; the “time to fibrillation, aconitin infusion” value amounted to 23.5 ± 1.63 min. Besides, in series [1], the ED125 turned out to be 1.21 mg/kg and the ED150 was 1.91 mg/kg. In addition, the “LD50 (acute toxicity)” value in series [2] turned out to be 15 mg/kg.
On to `C=CC1CN2CCC1CC2C(O)c1ccnc2ccc(OC)cc12` (stereo not shown) [chinidin, reference compound], for which the “time to chamber extrasystol” value in series [1] (5.0 mg/kg i.v.) is on record as 6.9 ± 0.06 min; in series [1] (10.0 mg/kg i.v.) it was 8.4 ± 0.42 min. For the same compound, the “time to chamber tachycardia” value in series [1] (5.0 mg/kg i.v.) was 10.4 ± 0.45 min; in series [1] (20.0 mg/kg i.v.), 15.7 ± 0.48 min. Besides, the “time to fibrillation, aconitin infusion” value in series [1] (5.0 mg/kg i.v.) came to 13.7 ± 0.44 min; in series [1] (20.0 mg/kg i.v.), 18.1 ± 0.22 min. The ED125 in series [1] amounted to 6.75 mg/kg.
With `Cc1cccc(C)c1OCC(C)NC(=O)C1=CC(C)(C)NC1(C)C` (stereo not shown) [Compound 9, 2-[N(2,2,5,5-tetramethyl-2,5-dihydro-3-pyrroline-3-carbonyl)]-3-(2,6-dimethyl-phenoxy)-aminopropane], in series [1] (0.5 mg/kg i.v.), the “time to chamber extrasystol” value was 7.2 ± 0.06 min; the “time to chamber tachycardia” value is listed as 11.1 ± 0.68 min; the “time to fibrillation, aconitin infusion” value is recorded as 14.6 ± 0.48 min. In addition, in series [1] (1.0 mg/kg i.v.), the “time to chamber extrasystol” value is recorded as 9.2 ± 0.10 min; the “time to chamber tachycardia” value is on record as 15.3 ± 0.29 min; the “time to fibrillation, aconitin infusion” value is 20.9 ± 0.50 min. In series [1] (2.0 mg/kg i.v.), the “time to chamber extrasystol” value is reported as 13.2 ± 1.21 min; the “time to chamber tachycardia” value came to 18.9 ± 0.13 min; the “time to fibrillation, aconitin infusion” value came out at 24.6 ± 0.79 min. For the same compound, in series [1], the ED125 amounted to 0.6 mg/kg and the ED150 is 0.9 mg/kg. Besides, in series [2], the “LD50 (acute toxicity)” value was 11 mg/kg.
As to `CC1(C)C=C(C(=O)NC(c2ccccc2)c2ccccc2)C(C)(C)N1` [Compound 6], in series [1], the ED125 is 5.4 mg/kg and the ED150 worked out at 23.1 mg/kg. Further, the “LD50 (acute toxicity)” value in series [2] came to 63 mg/kg.
Consider `Cc1cccc(C)c1OCC(C)NC(=O)C1CC(C)(C)NC1(C)C` (stereo not shown) [Compound 11, 2-[N-(2,2,5,5-tetramethyl-3-pyrrolidine-3-carbonyl)]-3-(2,6-dimethyl-phenoxy)-amino propane], for which, in series [1] (0.25 mg/kg i.v.), the “time to chamber extrasystol” value is 7.6 ± 0.24 min; the “time to chamber tachycardia” value is given as 11.3 ± 0.88 min; the “time to fibrillation, aconitin infusion” value is 15.9 ± 0.49 min. Also, in series [1] (0.5 mg/kg i.v.), the “time to chamber extrasystol” value stood at 9.9 ± 0.40 min; the “time to chamber tachycardia” value is recorded as 15.3 ± 0.52 min; the “time to fibrillation, aconitin infusion” value was 19.1 ± 0.89 min. Besides, in series [1] (1.0 mg/kg i.v.), the “time to chamber extrasystol” value was 13.2 ± 1.29 min; the “time to chamber tachycardia” value was determined as 19.3 ± 1.24 min; the “time to fibrillation, aconitin infusion” value is listed as 23.5 ± 0.42 min. In series [1], the ED125 was 0.26 mg/kg and the ED150 came to 0.39 mg/kg. Also, the LD50 at 168 h in series [3] was found to be 1.96 mg/kg.
